One experiment deals with PC-3 cells. As to the kind of experiment: MTT viability assay, PC-3. It is filed as cell-based. The conditions noted are these: Homo sapiens. The procedure: (§1) The prostate cancer cell lines, LNCaP and PC-3, were purchased from American Type Culture Collection (Manassas, Va.) and maintained in RPMI 1640 medium containing 10% heat-inactivated fetal bovine serum at 37° C. in a humidified incubator containing 5% CO2. The LNCaP-abl cells were a generous gift from Dr. Qianben Wang (The Ohio State University). Normal prostate epithelial cells were purchased from Lonza (Walkersville, Md.) and were cultured in the vendor-recommended defined prostate epithelial cell growth medium. For experiments, LNCaP cells were plated on poly-D-lysine-coated culture flasks at a density of 12,000 cells per cm^2 surface area for 24 hours, followed by treatment with test agents in serum-free RPMI 1640 medium. The α- and γ-tocopherols were purchased from Sigma-Aldrich (St. Louis, Mo.). The tocopherol derivatives, α- and γ-VE5, were synthesized by the inventors.
(§2) LNCaP cells were plated into poly-D-lysine-coated 96-well plates and PC-3 and LNCaP-abl cells into uncoated plates at the density of 5,000 cells per well in the presence of 10% FBS. Normal prostate epithelial cells were plated into uncoated plates at a density of 8,000 cells per well. […] After 24 hours of treatment, cells were incubated with MTT [3-(4,5-dimethylthiazol-2-yl)-2,5-diphenyl-2H-tetrazolium bromide] (TCI America; 0.5 mg/ml, final concentration) for an additional 2 hours. The medium was then removed from each well and replaced with DMSO to dissolve the reduced MTT dye for subsequent colorimetric measurement of absorbance at 595 nm. Cell viabilities are calculated as percentages of that in the corresponding vehicle-treated control group.

The target of experiment [1] is T1, PH domain of Akt (GST-PH domain fusion protein) (Homo sapiens, UniProt P31749).
T1 construct: made in house
Nature of the experiment: Surface plasmon resonance binding, Akt PH domain. The conditions noted are these: Table 3; binding affinities to the Akt PH domain; read-out: Kd. An excerpt: The cDNA fragments corresponding to the putative PH domain sequences of PHLPP1 (+115 to +372), PDK1 (+1225 to +1671), Akt1 (+1 to +447) and ILK (+538 to +646) were PCR-amplified using the plasmids pcDNA-HA-PHLPP1, pWZL-Neo-Myr-FLAG-PDPK1, pcDNA-HA-PKB-T308D-S473D, and pCMV-SPORT-ILK (Addgene) as templates. The PCR products were then cloned into EcoRI/XhoI sites of the pGEX-4T1 expression vector (GE Healthcare Life Sciences) to generate four constructs (pGEX-4T1-PHLPP1, pGEX-4T1-PDPK1, pGEX-4T1-AKT1, pGEX-4T1-ILK) for the expression of GST-PH domain fusion proteins. The mutated Akt1 Y38G PH domain was generated from pGEX-4T1-AKT1 by site-directed mutagenesis using the QuikChange II XL Site-Directed Mutagenesis Kit (Agilent Technologies). The expression and purification of GST-PH domain fusion proteins were performed essentially as described previously. Thomas et al., Curr Biol 12, 1256 (2002). The purified PH domains were analyzed by SDS-PAGE using an overloaded gel with purities were estimated to be >95% using ImageJ software.
Binding experiments were performed using a Biacore T100 system (GE Healthcare, Piscataway, N.J.). The GST-PH domain fusion proteins were immobilized on a CM5 S Sensorchip using Biacore's Amine Coupling Kit to a level of 17,000 response units. VE5 compounds and di-octanoyl PIP3 at concentrations ranging from 0.1 to 100 μM and 1 to 20 μm, respectively, were injected at a high flow rate (30 μL/min) over the biosensor surface for binding analyses. DMSO concentrations in all samples and running buffer were 1% (v/v) or less. Data were analyzed using Biacore T100 Evaluation Software.
A general note: Surface plasmon resonance follows binding to a sensor surface in real time, without labels.

For a further experiment, the system named is LNCaP cells. As to the kind of experiment: MTT viability assay, LNCaP. It is filed as cell-based. The conditions noted are these: Homo sapiens, 1% FBS-containing or serum-free RPMI 1640 medium for 24 h. How it is done: as §1, §2
The test system of experiment [2] is phosphorylation of Ser473 in Akt. Nature of the experiment: Western blot of Akt phosphorylation at Ser473. It is filed as cell-based. The conditions noted are these: LNCaP and PC-3 cells, Thr308 not altered. The procedure: (§3) Cells were exposed to the test agents in 10-cm dishes for 24 hours and then collected by scraping. The cell pellets were washed once with PBS, and then lysed at 4° C. over 30 min of incubation in a sodium dodecyl sulfate (SDS) lysis buffer containing 1% SDS, 50 mM Tris HCl (pH 8.1), 10 mM EDTA and […] protease inhibitor cocktail (Sigma-Aldrich). The cell debris was pelleted by centrifugation for 20 min at 14,000×g, and 1 μl of each supernatant was used for determination of protein concentration using a colorimetric bicinchoninic assay (Pierce, Rockford, Ill.). The remaining sample was added to equal volume of 2×SDS-polyacrylamide gel electrophoresis sample loading buffer (62.5 mM Tris-HCl, pH 6.8, 4% SDS, 5% β-mercaptoethanol, 20% glycerol, 0.1% bromophenol blue), followed by incubation in boiling water for 5 min. Equivalent amounts of total protein were resolved in SDS-polyacrylamide gels, and then transferred to nitrocellulose membranes using a semidry transfer cell. The transblotted membrane was washed twice with Tris-buffered saline containing 0.1% Tween 20 (TBST). After blocking with TBST containing 5% nonfat milk for 40 min, the membrane was incubated with the appropriate primary antibody (1:1000) in TBST-1% nonfat milk at 4° C. overnight. The membrane was then washed three times with TBST for a total of 15 min, followed by incubation with goat anti-rabbit or anti-mouse IgG-horseradish peroxidase conjugates (1:2000) for 1 hour at room temperature and four washes with TBST for a total of 1 hour. The immunoblots were visualized by enhanced chemiluminescence (GE Healthcare Life Sciences).

In experiment [3] the test system is mTORC2 (mTOR, rictor, SGK, PKCα). Nature of the experiment: Western blot of mTORC2 components and downstream targets. It is filed as cell-based. How it is done: as §3
For orientation: In western blotting, separated proteins are transferred to a membrane and probed.

Experiment [4] has as its system Normal prostate epithelial cells. Nature of the experiment: Viability / apoptosis in normal prostate epithelial cells. It is filed as cell-based. How it is done: as §1
(§4) LNCaP cells were plated into poly-D-lysine-coated 96-well plates and PC-3 and LNCaP-abl cells into uncoated plates at the density of 5,000 cells per well in the presence of 10% FBS. Normal prostate epithelial cells were plated into uncoated plates at a density of 8,000 cells per well. Exposure to test agents in serum-free medium was initiated 24 hours later. After 24 hours of treatment, cells were incubated with MTT [3-(4,5-dimethylthiazol-2-yl)-2,5-diphenyl-2H-tetrazolium bromide] (TCI America; 0.5 mg/ml, final concentration) for an additional 2 hours. The medium was then removed from each well and replaced with DMSO to dissolve the reduced MTT dye for subsequent colorimetric measurement of absorbance at 595 nm. Cell viabilities are calculated as percentages of that in the corresponding vehicle-treated control group.

A further experiment relates to LNCaP and PC-3 cells. As to the kind of experiment: MTT viability assay, one value stated for both prostate cancer lines. It is filed as cell-based. The conditions noted are these: MTT, serum-free medium; one value for LNCaP and PC-3; read-out: IC50, antiproliferative effect / viability. How it is done: as §1, §4
On the technique in general: Tetrazolium assays rely on reduction of a dye to a coloured formazan, in cell work by metabolically active cells.

Where [5] appears, read: PC-3, 1% FBS-containing or serum-free RPMI 1640 medium for 24 h, read-out: IC50 (μM) PC-3.
[6] abbreviates: Table 3, antitumor activities against PC-3 cells, read-out: IC50.
The mark [7] stands for this setting: PC-3, Table 4, effect of chain length on antiproliferative activity, read-out: IC50.

Consider 24 compounds from US20140031388A1, “AKT INACTIVATION BY TOCOPHERYL DERIVATIVES” (priority 2012, published 2014).

Like-named read-outs stand apart in the source and are kept apart here.

T1 sequence (P31749 5-108 limits assumed): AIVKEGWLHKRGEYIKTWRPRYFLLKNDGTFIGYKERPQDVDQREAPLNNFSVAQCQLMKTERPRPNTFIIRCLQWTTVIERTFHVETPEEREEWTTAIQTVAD

Turning to `CC(C)CCCC1(C)CCc2cc(O)cc(C(F)(F)F)c2O1` (racemic) [Compound 3, 2-methyl-2-(4-methylpentyl)-8-(trifluoro-methyl)chroman-6-ol], the IC50 in the experiment with PC-3 cells (setting [5]) and with PC-3 cells (setting [6]) was 8 µM in each case. For the same compound, the Kd in experiment [1] was 0.7 µM.

In the experiment on LNCaP cells, `CC(C)CCCC1(C)CCc2cc(O)ccc2O1` (racemic) [Compound 29, 2-methyl-2-(4-methylpentyl)chroman-6-ol] had an IC50 of 40 µM.

In turn, `COc1ccc2c(c1)CCC(C)(CCCC(C)C)O2` (racemic) [Compound 30, 6-methoxy-2-methyl-2-(4-methylpentyl)-chroman] showed an IC50 with LNCaP cells of 40 µM.

As for `CC(C)CCCC1(C)CCc2c(O)cccc2O1` (racemic) [Compound 31, 2-methyl-2-(4-methylpentyl)chroman-5-ol], the IC50 in the experiment on LNCaP cells was 18 µM.

For the compound `CC(C)CCCC1(C)CCc2cc(N)ccc2O1` (racemic) [Compound 32, 2-methyl-2-(4-methylpentyl)chroman-6-amine], the IC50 with LNCaP cells was above 50 µM.

For `CC(C)CCCC1(C)CC(=O)c2cc(O)ccc2O1` (racemic) [Compound 33, 6-hydroxy-2-methyl-2-(4-methylpentyl)chroman-4-one], in the experiment with LNCaP cells, the IC50 was 30 µM.

Take `Cc1cc2c(cc1O)C(=O)CC(C)(CCCC(C)C)O2` (racemic) [Compound 34, 6-hydroxy-2,7-dimethyl-2-(4-methylpentyl)chroman-4-one]: the IC50 in the experiment on LNCaP cells is 30 µM.

The compound `CC(C)CCCC1(C)CCc2ccc(O)c(O)c2O1` (racemic) [Compound 35, 2-methyl-2-(4-methylpentyl)chroman-7,8-diol] yielded an IC50 in the experiment with LNCaP cells above 50 µM.

Consider `CC(C)CCCC1(C)CCc2c(O)cc(N3CCCC3)cc2O1` (racemic) [Compound 36, 2-methyl-2-(4-methylpentyl)-7-(pyrrolidin-1-yl)chroman-5-ol], for which the IC50 in the experiment with LNCaP cells is 21 µM.

`CC(C)CCCC1(C)CC(=O)c2c(O)cc(N3CCCC3)cc2O1` (racemic) [Compound 37, 5-hydroxy-2-methyl-2-(4-methylpentyl)-7-(pyrrolidin-1-yl)chroman-4-one]: the IC50 with LNCaP cells is above 50 µM.

Consider `Cc1c(O)cc2c(c1C)OC(C)(CCCC(C)C)CC2` (racemic) [rac-VE5], for which, in the experiment on LNCaP cells, the IC50 worked out at 20 µM.

Regarding `Cc1cc(O)cc2c1OC(C)(CCCC(C)C)CC2` (stereo not drawn) [Compound 2, 2,8-dimethyl-2-(4-methylpentyl)chroman-6-ol], the IC50 in the experiment on PC-3 cells (setting [5]) and in the experiment on PC-3 cells (setting [6]) was 9 µM in each case. In addition, the equilibrium dissociation constant (Kd) in experiment [1] came out at 0.6 µM.

In the case of `CC(C)CCCC1(C)CCc2cc(O)cc(O)c2O1` (stereo not drawn) [Compound 4, 2-methyl-2-(4-methylpentyl)chroman-6,8-diol], the IC50 in the experiment on PC-3 cells (setting [5]) and in the experiment with PC-3 cells (setting [6]) was 27 µM throughout. In experiment [1], the Kd amounted to 2 µM.

Consider `COc1cc(O)cc2c1OC(C)(CCCC(C)C)CC2` (stereo not drawn) [Compound 5, 8-methoxy-2-methyl-2-(4-methylpentyl)-chroman-6-ol], for which the IC50 with PC-3 cells (setting [5]) and with PC-3 cells (setting [6]) was 28 µM in each case. For the same compound, the Kd in experiment [1] was 3.1 µM.

For `CC(C)CCCC1(C)CCc2cc(O)cc(F)c2O1` (stereo not drawn) [Compound 7, 8-fluoro-2-methyl-2-(4-methylpentyl)-chroman-6-ol], the IC50 in the experiment with PC-3 cells (setting [5]) and with PC-3 cells (setting [6]) was 7 µM throughout. In addition, in experiment [1], the Kd was found to be 0.5 µM.

For `CC(C)CCCC1(C)CCc2cc(O)cc(Br)c2O1` (stereo not drawn) [Compound 8, 8-bromo-2-methyl-2-(4-methylpentyl)-chroman-6-ol], the IC50 in the experiment with PC-3 cells (setting [5]) and in the experiment on PC-3 cells (setting [6]) was 7 µM each time. Moreover, the Kd in experiment [1] turned out to be 0.65 µM.

Consider `Cc1c(O)cc2c(c1C)NC(C)(CCCC(C)C)CC2` (stereo not drawn) [Compound 9, 2,7,8-trimethyl-2-(4-methylpentyl)-1,2,3,4-tetrahydroquinolin-6-ol], for which the IC50 with PC-3 cells (setting [5]) and in the experiment with PC-3 cells (setting [6]) was 15 µM each time. In addition, in experiment [1], the Kd is 0.1 µM.

For the compound `CCCCCCCCC1(C)CCc2cc(O)cc(C)c2N1` (stereo not drawn) [Compound 10, 2,8-dimethyl-2-octyl-1,2,3,4-tetrahydro-quinolin-6-ol], the IC50 in the experiment with PC-3 cells (setting [5]) and with PC-3 cells (setting [7]) was 8.5 µM each time.

As for `COCCCC1(C)CCc2cc(O)cc(F)c2O1` (stereo not drawn) [Compound 11, 8-fluoro-2-(3-methoxypropyl)-2-methyl-chroman-6-ol], the IC50 in the experiment on PC-3 cells (setting [5]) and with PC-3 cells (setting [7]) was above 30 µM throughout.

Turning to `CCCCCCCCC1(C)CCc2cc(O)cc(F)c2O1` (stereo not drawn) [Compound 12, 8-fluoro-2-methyl-2-octylchroman-6-ol], the IC50 in the experiment on PC-3 cells (setting [5]) and with PC-3 cells (setting [7]) was 8.5 µM in each case.

Turning to `CCc1ccc(CCC2(C)CCc3cc(O)cc(F)c3O2)cc1` (stereo not drawn) [Compound 13, 2-(4-ethylphenethyl)-8-fluoro-2-methyl-chroman-6-ol], the IC50 in the experiment on PC-3 cells (setting [5]) and with PC-3 cells (setting [7]) was 9 µM each time.

`Cc1c(O)cc2c(c1C)O[C@](C)(CCCC(C)CCCC(C)C)CC2` (stereo partly drawn) [Compound 27, (2R)-2-(4,8-dimethylnonyl)-2,7,8-trimethylchroman-6-ol] came in with an IC50 in the experiment with LNCaP cells of 30 µM.

`Cc1c(C)c2c(c(C)c1O)CC[C@@](C)(CCCC(C)CCCC(C)C)O2` (stereo partly drawn) [Compound 28, (2R)-2-(4,8-dimethylnonyl)-2,5,7,8-tetramethylchroman-6-ol]: the IC50 in the experiment on LNCaP cells came to 42 µM.

`Cc1c(O)cc2c(c1C)O[C@](C)(CCC[C@H](C)CCC[C@H](C)CCCC(C)C)CC2` [γ-tocopherol, reference compound]: the “effect on phosphorylation of Akt at Ser473” value in experiment [2] is recorded as “dose-dependently reduced”. Further, in experiment [3], the “abundance or phosphorylation of mTORC2 components and targets (mTOR, rictor, SGK, PKCα)” value is “no effect”. Moreover, in experiment [4], the “apoptosis in normal prostate epithelial cells” value was “resistant”. The IC50 in the experiment with LNCaP and PC-3 cells lay within 100 to 150 µM.

Broadly, the Kd is the constant that tells how readily two partners part at equilibrium.
